In patent US11046699B2, “Pyrazolo-pyrimidin-amino-cycloalkyl compounds and their therapeutic uses” (RAPT THERAPEUTICS, INC., priority 2018, dated 2021) one finds IC50 data, which are given here for 32 compounds.

For the first assay, the target named is GCN2 (Homo sapiens, UniProt Q9P2K8). Nature of the assay: GCN2 enzymatic endpoint assay: phosphorylation of GFP-eIF2α measured by TR-FRET (Lanthascreen). Conditions: GCN2 biochemical IC50; 4 nM GCN2, 2 μM ATP, 80 nM GFP-eIF2α, 90 min RT; read-out: GCN2 activity. It counts as biochemical. The method in brief: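 2 μM ATP, 80 nM GFP-eIF2α, RT, 90 min; EDTA stop. Tb-anti-phospho antibody TR-FRET read, 520/495 nm ratio.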
Chain of GCN2 (Q9P2K8 whole entry): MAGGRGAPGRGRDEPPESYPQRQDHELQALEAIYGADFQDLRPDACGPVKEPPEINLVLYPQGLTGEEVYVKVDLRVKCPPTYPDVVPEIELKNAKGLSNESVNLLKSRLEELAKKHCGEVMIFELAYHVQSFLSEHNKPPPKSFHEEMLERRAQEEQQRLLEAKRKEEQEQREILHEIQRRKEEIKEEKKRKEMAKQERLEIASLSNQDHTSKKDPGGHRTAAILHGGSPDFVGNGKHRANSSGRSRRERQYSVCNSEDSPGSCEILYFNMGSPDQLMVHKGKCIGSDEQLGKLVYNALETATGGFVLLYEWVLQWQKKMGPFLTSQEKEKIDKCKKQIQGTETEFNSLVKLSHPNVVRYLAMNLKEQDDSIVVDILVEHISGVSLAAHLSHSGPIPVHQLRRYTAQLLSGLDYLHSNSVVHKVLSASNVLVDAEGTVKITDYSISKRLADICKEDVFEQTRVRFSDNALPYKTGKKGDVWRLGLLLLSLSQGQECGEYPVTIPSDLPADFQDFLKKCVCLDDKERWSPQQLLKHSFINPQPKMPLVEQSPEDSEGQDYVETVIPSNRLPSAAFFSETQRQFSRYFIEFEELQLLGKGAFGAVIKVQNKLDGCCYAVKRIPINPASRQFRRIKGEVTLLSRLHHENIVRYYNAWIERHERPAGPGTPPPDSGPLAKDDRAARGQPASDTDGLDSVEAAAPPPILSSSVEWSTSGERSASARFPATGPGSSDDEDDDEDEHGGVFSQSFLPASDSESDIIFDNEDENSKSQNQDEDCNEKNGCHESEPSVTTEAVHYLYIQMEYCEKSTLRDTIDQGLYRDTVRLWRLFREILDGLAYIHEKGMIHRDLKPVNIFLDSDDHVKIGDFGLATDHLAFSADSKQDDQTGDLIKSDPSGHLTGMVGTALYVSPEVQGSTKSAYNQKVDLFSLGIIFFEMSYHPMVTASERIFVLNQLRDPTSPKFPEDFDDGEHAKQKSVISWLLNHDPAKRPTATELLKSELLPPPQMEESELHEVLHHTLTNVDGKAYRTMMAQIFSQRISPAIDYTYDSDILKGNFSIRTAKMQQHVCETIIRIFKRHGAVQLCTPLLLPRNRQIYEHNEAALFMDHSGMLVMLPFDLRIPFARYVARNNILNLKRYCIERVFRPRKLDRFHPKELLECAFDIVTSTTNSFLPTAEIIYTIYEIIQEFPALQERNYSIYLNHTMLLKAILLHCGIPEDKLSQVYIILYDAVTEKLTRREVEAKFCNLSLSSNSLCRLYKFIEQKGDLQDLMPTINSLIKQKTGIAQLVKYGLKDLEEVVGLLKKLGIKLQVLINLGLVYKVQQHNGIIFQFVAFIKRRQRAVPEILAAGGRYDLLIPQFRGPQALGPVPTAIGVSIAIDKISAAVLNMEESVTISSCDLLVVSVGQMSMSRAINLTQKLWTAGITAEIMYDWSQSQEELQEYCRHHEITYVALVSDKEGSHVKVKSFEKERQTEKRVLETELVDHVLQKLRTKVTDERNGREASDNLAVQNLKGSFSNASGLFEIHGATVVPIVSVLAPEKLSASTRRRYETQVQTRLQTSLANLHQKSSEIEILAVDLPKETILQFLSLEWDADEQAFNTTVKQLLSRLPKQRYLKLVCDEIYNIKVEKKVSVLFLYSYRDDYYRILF
Background: TR-FRET usually uses a lanthanide donor and a delayed reading to cut background.
Take `CNC(=O)[C@]1(C)CC[C@@H](Nc2ncc3c(Br)nn(-c4ccc(-c5nnc(C)s5)c(CCN(C)C)c4)c3n2)C1` [Example 63, (1R,3R)-3-((3-bromo-1-(3-(2-(dimethylamino)ethyl)-4-(5-methyl-1,3,4-thiadiazol-2-yl)phenyl)-1H-pyrazolo[3,4-d]pyrimidin-6-yl)amino)-N,1-dimethylcyclopentane-1-carboxamide; 2,2,2-trifluoroacetic acid]: the IC50 is 25 to 200 nM.

Consider `NC(=O)[C@@H]1CC[C@@H](Nc2ncc3c(Br)nn(-c4cc(F)c5ncccc5c4)c3n2)C1` [Example 12, (1R,3R)-3-((3-bromo-1-(8-fluoroquinolin-6-yl)-1H-pyrazolo[3,4-d]pyrimidin-6-yl)amino)cyclopentane-1-carboxamide], for which the IC50 lay in the range of 25 to 200 nM.

As for `CNC(=O)[C@]1(CC#N)CC[C@@H](Nc2ncc3c(Br)nn(-c4cc(F)c5ncccc5c4)c3n2)C1` (single isomer, unassigned) [Example 19], the IC50 was 25 to 200 nM.

For `Cc1nnc(-c2ccc(-n3nc(Br)c4cnc(N[C@@H]5CC[C@@](C)(O)C5)nc43)cc2CCC#N)s1` [Example 76, 3-(5-(3-bromo-6-(((1R,3R)-3-hydroxy-3-methylcyclopentyl)amino)-1H-pyrazolo[3,4-d]pyrimidin-1-yl)-2-(5-methyl-1,3,4-thiadiazol-2-yl)phenyl)propanenitrile], the IC50 was 25 to 200 nM.

As to `CN1CCN(C(=O)[C@@H]2CC[C@@H](Nc3ncc4c(Br)nn(-c5ccc(-c6cccnc6)c(F)c5)c4n3)C2)CC1=O` [Example 27, 4-((1R,3R)-3-((3-bromo-1-(3-fluoro-4-(pyridin-3-yl)phenyl)-1H-pyrazolo[3,4-d]pyrimidin-6-yl)amino)cyclopentane-1-carbonyl)-1-methylpiperazin-2-one], the IC50 is 500 to 1000 nM.

The assay is the same for the next values; noted with them: tested as described in Example 77; compound and/or hydrochloride, dihydrochloride or trifluoroacetic acid salt; read-out: IC 50 Activity.
On to `CNC(=O)[C@]1(C)CCC(Nc2ncc3c(Br)nn(-c4cnc(-c5nnc(C)s5)c(Cl)c4)c3n2)C1` (stereo partly drawn) [(1R)-3-[[3-bromo-1-[5-chloro-6-(5-methyl-1,3,4-thiadiazol-2-yl)-3-pyridyl]pyrazolo [3,4-d]pyrimidin-6-yl]amino]-N,1-dimethyl-cyclopentanecarboxamide], for which the IC50 lay within 25 to 200 nM.

In the case of `CNC(=O)[C@]1(C)CC[C@@H](Nc2ncc3c(Br)nn(-c4ccc5c(c4)CCC(=O)N5CC#N)c3n2)C1` [(1R,3R)-3-[[3-bromo-1-[1-(cyano-methyl)-2-oxo-3,4-dihydroquinolin-6-yl]pyrazolo[3,4-d]pyrimidin-6-yl]amino]-N,1-dimethyl-cyclopentane-carboxamide], the IC50 lay within 25 to 200 nM.

For `CNC(=O)[C@H]1C[C@H](Nc2ncc3c(Br)nn(-c4cc(F)c5ncccc5c4)c3n2)C1`, the IC50 lay in the range of 200 to 500 nM.

Regarding `CNC(=O)CCC1(C#N)CC[C@@H](Nc2ncc3c(Br)nn(-c4ccc(-c5nnc(C)s5)cc4)c3n2)C1` (some centres unmarked), the IC50 is less than 25 nM.

Take `COC[C@@H](C)NC(=O)[C@@H]1CCC[C@@H](Nc2ncc3c(Br)nn(-c4ccc5ncccc5c4)c3n2)C1` [(1R,3R)-3-((3-bromo-1-(quinolin-6-yl)-1H-pyrazolo[3,4-d]pyrimidin-6-yl)amino)-N-((R)-1-methoxypropan-2-yl)cyclohexane-1-carboxamide]: the IC50 was in the range of 500 to 1000 nM.

Consider `COC1(C)CN(C(=O)[C@]2(C)CC[C@@H](Nc3ncc4c(Br)nn(-c5cc(F)c6ncccc6c5)c4n3)C2)C1` [[(1R,3R)-3-[[3-bromo-1-(8-fluoro-6-quinolyl)pyrazolo[3,4-d]pyrimidin-6-yl]amino]-1-methyl-cyclopentyl]-(3-methoxy-3-methyl-azetidin-1-yl)methanone], for which the IC50 was less than 25 nM.

For `CNC(=O)[C@]1(C)CC[C@@H](Nc2ncc3c(Br)nn(-c4cc(C#N)cc(CN)c4)c3n2)C1`, the IC50 lay in the range of 25 to 200 nM.

As to `CNC(=O)[C@]1(C)CC[C@@H](Nc2ncc3c(Br)nn(-c4cc(N5CCNCC5)c5ncccc5c4)c3n2)C1`, the IC50 was in the range of 25 to 200 nM.

Regarding `CNC(=O)[C@]1(C)CC[C@@H](Nc2ncc3c(Br)nn(-c4cc(C(C)CO)c5ncccc5c4)c3n2)C1` (stereo partly drawn) [(1R,3R)-3-[[3-bromo-1-[8-(2-hydroxy-1-methyl-ethyl)-6-quinolyl]pyrazolo[3,4-d]pyrimidin-6-yl]amino]-N,1-dimethyl-cyclopentanecarboxamide], the IC50 was less than 25 nM.

As to `CNC(=O)[C@]1(C)CC[C@@H](Nc2ncc3c(Br)nn(-c4ccc(-c5ncco5)c(CNS(C)(=O)=O)c4)c3n2)C1` [(1R,3R)-3-[[3-bromo-1-[3-(methane-sulfonamidomethyl)-4-oxazol-2-yl-phenyl]pyrazolo[3,4-d]pyrimidin-6-yl]amino]-N,1-dimethyl-cyclopentanecarboxamide], the IC50 was in the range of 25 to 200 nM.

As to `CNC(=O)[C@]1(C)CC[C@@H](Nc2ncc3c(Br)nn(-c4ccc(-c5cnn(C)c5)cc4)c3n2)C1` [(1R,3R)-3-[[3-bromo-1-[4-(1-methyl-pyrazol-4-yl)phenyl]pyrazolo[3,4-d]pyrimidin-6-yl]amino]-N,1-dimethyl-cyclopentanecarboxamide], the IC50 lay in the range of 25 to 200 nM.

As to `CN(CCNC(=O)[C@@H]1CC[C@@H](Nc2ncc3c(Br)nn(-c4ccc5ncccc5c4)c3n2)C1)CC(=O)O` [N-(2-((1R,3R)-3-((3-bromo-1-(quinolin-6-yl)-1H-pyrazolo[3,4-d]pyrimidin-6-yl)amino)cyclopentane-1-carboxamido)ethyl)-N-methylglycine], the IC50 was in the range of 25 to 200 nM.

With `CNC(=O)[C@H]1C[C@H](Nc2ncc3c(Br)nn(-c4cc(Cl)cc(CO)c4)c3n2)CO1` [(2R,4S)-4-[[3-bromo-1-[3-chloro-5-(hydroxymethyl)phenyl]pyrazolo [3,4-d]pyrimidin-6-yl]amino]-N-methyl-tetrahydrofuran-2-carboxamide], the IC50 lay within 25 to 200 nM.

With `O=C(N[C@H]1CCOC1)[C@@H]1CC[C@@H](Nc2ncc3c(Br)nn(-c4ccc5ncccc5c4)c3n2)C1` [(1R,3R)-3-((3-bromo-1-(quinolin-6-yl)-1H-pyrazolo[3,4-d]pyrimidin-6-yl)amino)-N-((S)-tetrahydrofuran-3-yl)cyclopentane-1-carboxamide], the IC50 lay within 25 to 200 nM.

With `CNC(=O)[C@]1(C)CC[C@@H](Nc2ncc3c(Br)nn(-c4cc(COC)c5ncccc5c4)c3n2)C1` [(1R,3R)-3-[[3-bromo-1-[8-(methoxymethyl)-6-quinolyl]pyrazolo[3,4-d]pyrimidin-6-yl]amino]-N,1-dimethyl-cyclopentane-carboxamide], the IC50 was 25 to 200 nM.

For `CNC(=O)[C@]1(C)CC[C@@H](Nc2ncc3c(Br)nn(-c4cc(OCCOC)c5ncccc5c4)c3n2)C1` [(1R,3R)-3-[[3-bromo-1-[8-(2-methoxy-ethoxy)-6-quinolyl]pyrazolo[3,4-d]pyrimidin-6-yl]amino]-N,1-dimethyl-cyclopentanecarboxamide], the IC50 was less than 25 nM.

Turning to `CN(CC(C)(C)O)C(=O)[C@]1(C)CC[C@@H](Nc2ncc3c(Br)nn(-c4cc(F)c5ncccc5c4)c3n2)C1` [(1R,3R)-3-[[3-bromo-1-(8-fluoro-6-quinolyl)pyrazolo[3,4-d]pyrimidin-6-yl]amino]-N-(2-hydroxy-2-methyl-propyl)-N,1-dimethyl-cyclopentanecarboxamide], the IC50 was less than 25 nM.

Turning to `COCC(C)(C)NC(=O)[C@@H]1CC[C@@H](Nc2ncc3c(Br)nn(-c4ccc5ncccc5c4)c3n2)C1` [(1R,3R)-3-((3-bromo-1-(quinolin-6-yl)-1H-pyrazolo[3,4-d]pyrimidin-6-yl)amino)-N-(1-methoxy-2-methylpropan-2-yl)cyclopentane-1-carboxamide], the IC50 lay in the range of 200 to 500 nM.

Turning to `CNC(=O)C1(C(C)C#N)CC[C@@H](Nc2ncc3c(Br)nn(-c4ccc(-c5nnc(C)s5)cc4)c3n2)C1` (some centres unmarked), the IC50 fell in the range of 25 to 200 nM.

`COCCNC(=O)[C@@H]1CC[C@@H](Nc2ncc3c(Br)nn(-c4ccc5cn[nH]c5c4)c3n2)C1` [(1R,3R)-3-((3-bromo-1-(1H-indazol-6-yl)-1H-pyrazolo[3,4-d]pyrimidin-6-yl)amino)-N-(2-methoxyethyl)cyclopentane-1-carboxamide]: the IC50 was in the range of 500 to 1000 nM.

For `CNC(=O)[C@]1(C)CC[C@@H](Nc2ncc3c(Br)nn(-c4cc(CNCCC#N)cc(OC(F)(F)F)c4)c3n2)C1` [(1R,3R)-3-[[3-bromo-1-[3-[(2-cyanoethyl-amino)methyl]-5-(trifluoromethoxy)phenyl]pyrazolo[3,4-d]pyrimidin-6-yl]amino]-N,1-dimethyl-cyclopentane-carboxamide], the IC50 lay in the range of 25 to 200 nM.

`Cc1nnc(-c2ccc(-n3nc(Br)c4cnc(N[C@@H]5CC[C@@H](NC(=O)[C@@H]6CCCCN6)C5)nc43)cc2)s1`: the IC50 fell in the range of 25 to 200 nM.

Turning to `CC1(C(=O)N2CCN3CCOC[C@@H]3C2)CC[C@@H](Nc2ncc3c(Br)nn(-c4cc(F)c5ncccc5c4)c3n2)C1` (stereo partly drawn) [[(9aS)-3,4,6,7,9,9a-hexahydro-1H-pyrazino [2,1-c][1,4]oxazin-8-yl]-[(3R)-3-[[3-bromo-1-(8-fluoro-6-quinolyl)pyrazolo[3,4-d]pyrimidin-6-yl]amino]-1-methyl-cyclopentyl]methanone], the IC50 is 25 to 200 nM.

Take `C[C@@H]1COCCN1C(=O)[C@@H]1CC[C@@H](Nc2ncc3c(Br)nn(-c4ccc5ncccc5c4)c3n2)C1` [((1R,3R)-3-((3-bromo-1-(quinolin-6-yl)-1H-pyrazolo[3,4-d]pyrimidin-6-yl)amino)cyclo-pentyl)((R)-3-methylmorpholino)methanone]: the IC50 is 25 to 200 nM.

On to `Cc1ccc2cc(-n3nc(Br)c4cnc(N[C@@H]5CC[C@@H](P(C)(C)=O)C5)nc43)cc(F)c2n1` [3-bromo-N-[(1R,3R)-3-dimethylphosphoryl-cyclopentyl]-1-(8-fluoro-2-methyl-6-quinolyl) pyrazolo[3,4-d]pyrimidin-6-amine], for which the IC50 was 25 to 200 nM.

For `CNC(=O)C1(C)CC[C@@H](Nc2ncc3c(Br)nn(-c4ccc(-c5cnn(CCOC)c5)cc4)c3n2)C1` (stereo partly drawn) [(3R)-3-[[3-bromo-1-[4-[1-(2-methoxyethyl)pyrazol-4-yl]phenyl]pyrazolo[3,4-d]pyrimidin-6-yl]amino]-N,1-dimethyl-cyclopentanecarboxamide], the IC50 was in the range of 25 to 200 nM.

Take `CNC(=O)C1(C)CC[C@@H](Nc2ncc3c(Br)nn(-c4cc(CO)cc(OC)c4)c3n2)C1` (mixture of isomers): the IC50 was 25 to 200 nM.
